pEC50: −log10 of the molar value.
Test system: HT-29 cells (colon cancer cells)
Assay: In vitro assay for protection of HT-29 cells from necroptosis (TNFα/Smac mimetic/Z-VAD-FMK, CCK-8)
Type: cell-based
Conditions: Homo sapiens, Protective Activity Against Necroptosis, TNFα/Smac mimetic/Z-VAD-FMK induced, 24 h
Description: Z′=1−3(SDmin+SDmax)/(AVEmax−AVEmin) • wherein: • Min is the positive control Data, and Max is the negative control DMSO Data. • SD is the standard deviation, and AVE is the average. In Vitro Assay for Protection of HT-29 Cells from Necroptosis:
1) Experimental Materials
DMEM medium was purchased from Gibco; penicillin-streptomycin was purchased from Hyclone; TNFα was purchased from Peprotech; Smac mimetic and Z-VAD-FMK were purchased from Selleck; and CCK-8 was purchased from Medchem Express.
HT-29 cells (colon cancer cells) were cultured in DMEM+10% FBS+penicillin/streptomycin. For the experiment, HT-29 cells in the logarithmic phase were collected and seeded into 96-well plates at a specific density (typically 8×10^3 cells/well for adherent cells). The cells were cultured overnight in an incubator at 37° C. with 5% CO2. On the following day, the test compound was diluted with culture medium to the corresponding concentrations and added into the 96-well plate, with 3 replicate wells for each sample. A solvent control group and a blank control group containing only culture medium were set simultaneously. The spiked cells were induced with a combination of TNFα/Smac mimetic/Z-VAD-FMK for 24 h. Subsequently, 10 μL of CCK8 solution was added to each well, and the cells were incubated in an incubator for 1-3 h. Absorbance was measured at […] using a microplate reader, and the cell necrosis protection rate of the drug was calculated using the following formula:
Cell necrosis protection rate=[(X−C0)/(C−C0)]×100% • where C, C0, and X represent the average absorbance values of the solvent control group, the blank control group, and the drug treatment group, respectively. Finally, a cell viability curve was fitted using Graphpad Prism 5.0 software, and the EC50 value of the test compound for inhibiting necroptosis was calculated.

Row | Structure (SMILES) | pEC50
1 | C[C@H](NC(=O)c1cn(C)c2ccc(-c3ccn4nc(NC(=O)C5CC5)nc4c3)cc12)C(C)(C)C [Compound 93] | 6.00 to 7.00
2 | CC1CN(CC(=O)Nc2nc3cc(-c4ccc5c(c4)c(C(=O)N[C@@H](C)c4ccc(Cl)cc4)cn5C)ccn3n2)CCO1 (stereo partly drawn) [Compound 84] | > 9.00
3 | C[C@H](NC(=O)c1cn(C)c2ccc(-c3ccn4nc(NC(=O)C5CCOC5)nc4c3)cc12)c1ccc(F)cc1 (stereo partly drawn) [Compound 106] | > 9.00
4 | Cn1cc(C(=O)Nc2nc3cc(-c4ccc5c(c4)c(C(=O)N4N=CCC4c4ccc(F)cc4)cn5C)ccn3n2)cn1 (stereo not drawn) [Compound 171] | 8.00 to 9.00
5 | C[C@H](NC(=O)c1cn(C)c2ccc(-c3ccn4nc(NC(=O)CN5CCN(C)CC5)nc4c3)cc12)c1ccc(F)cc1 [Compound 51] | > 9.00
6 | COCCOCCOCCOCC(=O)Nc1nc2cc(-c3ccc4c(c3)c(C(=O)N[C@@H](C)c3ccc(F)cc3)cn4C)ccn2n1 [Compound 26] | > 9.00
7 | Cn1cc(C(=O)N2CC(F)(F)CC2c2ccc(F)cc2)c2cc(-c3ccn4nc(NC(=O)C5CC5)nc4c3)ccc21 (stereo not drawn) [Compound 158] | 5.00 to 6.00
8 | CCOC(=O)C(=O)Nc1nc2cc(-c3ccc4c(c3)c(C(=O)N[C@@H](C)c3ccc(F)cc3)cn4C)ccn2n1 [Compound 10] | 8.00 to 9.00
9 | Cn1nc(C(=O)N[C@@H](CF)c2ccc(F)cc2)c2cc(-c3ccn4nc(NC(=O)N5CCOCC5)nc4c3)ccc21 [Compound 189] | > 9.00
10 | Cn1cc(C(=O)N[C@H]2CCCc3cc(F)ccc32)c2cc(-c3ccn4nc(NC(=O)[C@H]5CCCO5)nc4c3)ccc21 [Compound 137] | 7.00 to 8.00
11 | Cn1cc(C(=O)N[C@@H](CF)c2ccc(F)cc2)c2cc(-c3ccn4nc(NC(=O)C5CCOC5)nc4c3)ccc21 (stereo partly drawn) [Compound 109] | 8.00 to 9.00
12 | C[C@H](NC(=O)c1nn(C)c2ccc(-c3ccn4nc(NC(=O)[C@H]5CCCO5)nc4c3)cc12)c1ccc(F)cc1 [Compound 193] | > 9.00
13 | Cn1cc(C(=O)Nc2nc3cc(-c4ccc5c(c4)c(C(=O)N[C@H]4CCCc6cc(F)ccc64)cn5C)ccn3n2)cn1 [Compound 141] | 8.00 to 9.00
14 | C[C@@H]1CN(CC(=O)Nc2nc3cc(-c4ccc5c(c4)c(C(=O)N[C@@H](C)c4ccc(F)cc4)cn5C)ccn3n2)C[C@H](C)O1 [Compound 46] | > 9.00
15 | CC(C(=O)Nc1cn(C)c2ccc(-c3ccn4nc(NC(=O)C5CC5)nc4c3)cc12)c1ccc(F)cc1 (stereo not drawn) [Compound 177] | 7.00 to 8.00
16 | CN(C)CC(=O)Nc1nc2cc(-c3ccc4c(c3)c(C(=O)N[C@@H](CF)c3ccc(F)cc3)cn4C)ccn2n1 [Compound 101] | > 9.00
17 | C[C@@H](c1ccc(F)cc1)N(C)C(=O)c1cn(C)c2ccc(-c3ccn4nc(NC(=O)[C@@H]5CCCO5)nc4c3)cc12 [Compound 176] | > 9.00
18 | C[C@H](NC(=O)c1cn(C)c2ccc(-c3ccn4nc(NC(=O)CN5CCOC[C@@H]5C)nc4c3)cc12)c1ccc(Cl)cc1 [Compound 82] | > 9.00
19 | C[C@H](NC(=O)c1cn(C)c2ccc(-c3ccn4nc(NC(=O)CN5C6CCC5COC6)nc4c3)cc12)c1ccc(F)cc1 [Compound 73] | > 9.00

Row | Structure (SMILES) | pEC50
20 | CCNCC(=O)Nc1nc2cc(-c3ccc4c(c3)c(C(=O)N[C@@H](C)c3ccc(F)cc3)cn4C)ccn2n1 [Compound 76] | > 9.00
21 | Cn1cc(C(=O)N[C@H]2CCc3ccc(F)cc32)c2cc(-c3ccn4nc(NC(=O)[C@H]5CCCO5)nc4c3)ccc21 [Compound 121] | > 9.00
22 | COCC(=O)Nc1nc2cc(-c3ccc4c(c3)c(C(=O)N[C@@H](CF)c3ccc(F)cc3)cn4C)ccn2n1 [Compound 97] | > 9.00
23 | CC[C@H](NC(=O)c1cn(C)c2ccc(-c3ccn4nc(NC(=O)CN5CCOCC5)nc4c3)cc12)c1ccc(F)cc1 [Compound 197] | > 9.00
24 | C[C@H](NC(=O)c1cn(C)c2ccc(-c3ccn4nc(NC(=O)CNCCOCCO)nc4c3)cc12)c1ccc(F)cc1 [Compound 65] | > 9.00
25 | CC(C(=O)Nc1nc2cc(-c3ccc4c(c3)c(C(=O)N[C@@H](C)c3ccc(F)cc3)cn4C)ccn2n1)N1CC[C@H](O)C1 (stereo partly drawn) [Compound 1] | 7.00 to 8.00
26 | C[C@H](NC(=O)c1cn(C)c2ccc(-c3ccn4nc(NC(=O)CN5CCOCC5)nc4c3)cc12)c1ccco1 [Compound 88] | 8.00 to 9.00
27 | C[C@H](NC(=O)c1cn(C)c2ccc(-c3ccn4nc(NC(=O)CN5CC[C@@H](O)C5)nc4c3)cc12)c1ccc(F)cc1 [Compound 12] | > 9.00
28 | C[C@H](NC(=O)c1cn(C)c2ccc(-c3ccn4nc(NC(=O)CN(C)CCO)nc4c3)cc12)c1ccc(F)cc1 [Compound 74] | > 9.00
29 | Cn1cc(C2=NC(c3ccc(F)cc3)CO2)c2cc(-c3ccn4nc(NC(=O)C5CC5)nc4c3)ccc21 (stereo not drawn) [Compound 212] | 7.00 to 8.00
30 | C[C@H](NC(=O)c1cn(C)c2ccc(-c3ccn4nc(NC(=O)CN5CCOCC5)nc4c3)cc12)C(C)(C)C [Compound 90] | 5.00 to 6.00
31 | C[C@H](NC(=O)c1cn(C)c2ccc(-c3ccn4nc(NC(=O)CN5CCOCC5)nc4c3)cc12)c1ccc(Cl)cc1 [Compound 83] | > 9.00
32 | C[C@H](NC(=O)c1cn(C)c2ccc(-c3ccn4nc(NC(=O)CC(=O)O)nc4c3)cc12)c1ccc(F)cc1 [Compound 63] | 5.00 to 6.00
33 | C[C@H](NC(=O)c1cn(C)c2ccc(-c3ccn4nc(NC(=O)N5CCOCC5)nc4c3)cc12)c1ccc(F)cc1 [Compound 116] | > 9.00
34 | Cn1cc(C(=O)N[C@H](c2ccc(F)cc2)C(F)F)c2cc(-c3ccn4nc(NC(=O)CN5CCCCC5)nc4c3)ccc21 [Compound 163] | > 9.00
35 | C[C@H](NC(=O)c1cn(C)c2ccc(-c3ccn4nc(NC(=O)CC5CCCCC5)nc4c3)cc12)c1ccc(F)cc1 [Compound 13] | > 9.00
36 | Cn1cc(C(=O)N[C@H]2CCc3cc(C#N)ccc32)c2cc(-c3ccn4nc(NC(=O)C5CC5)nc4c3)ccc21 [Compound 130] | 8.00 to 9.00
37 | C[C@H](NC(=O)c1cn(C)c2ccc(-c3ccn4nc(NC(=O)CN5CCC(O)(O)CC5)nc4c3)cc12)c1ccc(F)cc1 [Compound 5] | > 9.00
38 | CC1CN(CC(=O)Nc2nc3cc(-c4ccc5c(c4)c(C(=O)N[C@@H](C)c4ccc(F)cc4)cn5C)ccn3n2)CCO1 (stereo partly drawn) [Compound 45] | > 9.00

Row | Structure (SMILES) | pEC50
39 | C[C@H](NC(=O)c1nn(C)c2ccc(-c3ccn4nc(NC(=O)CN5CCOCC5)nc4c3)cc12)c1ccc(F)cc1 [Compound 196] | > 9.00
40 | Cn1cc(C(=O)NC2(c3ccc(F)cc3)COC2)c2cc(-c3ccn4nc(NC(=O)C5CC5)nc4c3)ccc21 [Compound 148] | 7.00 to 8.00
41 | C[C@H](NC(=O)c1cn(C)c2ccc(-c3ccn4nc(NC(=O)CN5CCN(CCO)CC5)nc4c3)cc12)c1ccc(F)cc1 [Compound 70] | > 9.00
42 | Cn1cc(C(=O)N[C@@H](CF)c2cccc(F)c2)c2cc(-c3ccn4nc(NC(=O)[C@H]5CCCO5)nc4c3)ccc21 [Compound 183] | > 9.00
43 | C[C@H](NC(=O)c1cn(C)c2ccc(-c3ccn4nc(NC(=O)Cn5cccn5)nc4c3)cc12)c1ccc(F)cc1 [Compound 58] | > 9.00
44 | C[C@H](NC(=O)c1cn(C)c2ccc(-c3ccn4nc(NC(=O)Cn5ccnc5)nc4c3)cc12)c1ccc(F)cc1 [Compound 48] | 7.00 to 8.00
45 | CC(C(=O)Nc1nn(C)c2ccc(-c3ccn4nc(NC(=O)c5cnn(C)c5)nc4c3)cc12)c1ccc(F)cc1 (stereo not drawn) [Compound 181] | 5.00 to 6.00
46 | C[C@H](NC(=O)c1cn(C)c2ccc(-c3ccn4nc(NC(=O)CN5CCOCC5C(=O)O)nc4c3)cc12)c1ccc(F)cc1 (stereo partly drawn) [Compound 33] | 5.00 to 6.00
47 | C[C@H](NC(=O)c1cn(C)c2ccc(-c3ccn4nc(NC(=O)CN5CCSCC5)nc4c3)cc12)c1ccc(Cl)cc1 [Compound 87] | > 9.00
48 | Cn1cc(C(=O)N[C@H](c2ccc(F)cc2)C(F)F)c2cc(-c3ccn4nc(NC(=O)CC#N)nc4c3)ccc21 [Compound 164] | > 9.00
49 | CC(=O)N1CCN(CC(=O)Nc2nc3cc(-c4ccc5c(c4)c(C(=O)N[C@@H](C)c4ccc(F)cc4)cn5C)ccn3n2)CC1 [Compound 53] | > 9.00
50 | C[C@H](NC(=O)c1cn(C)c2ccc(-c3ccn4nc(NC(=O)CN5CC(F)(F)C5)nc4c3)cc12)c1ccc(Cl)cc1 [Compound 80] | > 9.00
51 | Cn1cc(C(=O)N2N=CCC2c2ccc(F)cc2)c2cc(-c3ccn4nc(NC(=O)C5CCOC5)nc4c3)ccc21 (stereo not drawn) [Compound 169] | > 9.00
52 | C[C@H](NC(=O)c1cn(C)c2ccc(-c3ccn4nc(N5CCOCC5)nc4c3)cc12)c1ccc(F)cc1 [Compound 219] | 8.00 to 9.00
53 | C[C@H](NC(=O)c1nn(C)c2ccc(-c3ccn4nc(NC(=O)N5CCOCC5)nc4c3)cc12)c1ccc(F)cc1 [Compound 195] | > 9.00
54 | CN1CCC(C(=O)Nc2nc3cc(-c4ccc5c(c4)c(C(=O)N[C@H](c4ccc(F)cc4)C(F)F)cn5C)ccn3n2)C1 (stereo partly drawn) [Compound 168] | > 9.00
55 | C[C@H](NC(=O)c1nn(C)c2ccc(-c3ccn4nc(NC(=O)c5cnn(C)c5)nc4c3)cc12)c1ccc(F)cc1 [Compound 191] | > 9.00
56 | Cn1cc(C(=O)N[C@H]2CCCc3cc(F)ccc32)c2cc(-c3ccn4nc(NC(=O)[C@@H]5CCCO5)nc4c3)ccc21 [Compound 139] | 8.00 to 9.00
57 | CN1CCN(C(=O)Nc2nc3cc(-c4ccc5c(c4)c(C(=O)N[C@@H](CF)c4ccc(F)cc4)cn5C)ccn3n2)CC1 [Compound 95] | > 9.00

— patent US20260327224A1, “SUBSTITUTED PYRIDOTRIAZOLE COMPOUND, AND PREPARATION METHOD THEREFOR AND USE THEREOF” (ORIGIANT PHARMACEUTICAL CO., LTD., priority 2023, published 2026)
